Experimental data as given in patent publication US8067445B2, “N,N-disubstituted aminoalkylbiphenyl antagonists of prostaglandin D2 receptors” (Panmira Pharmaceuticals, LLC, priority 2008, dated 2011).

Biological target: T1, human DP1 receptor (Homo sapiens, UniProt Q13258)
T1 construct: tissue Biological Specialty Corporation; host or cells: human platelet membranes
T1 sequence (Q13258 1-359): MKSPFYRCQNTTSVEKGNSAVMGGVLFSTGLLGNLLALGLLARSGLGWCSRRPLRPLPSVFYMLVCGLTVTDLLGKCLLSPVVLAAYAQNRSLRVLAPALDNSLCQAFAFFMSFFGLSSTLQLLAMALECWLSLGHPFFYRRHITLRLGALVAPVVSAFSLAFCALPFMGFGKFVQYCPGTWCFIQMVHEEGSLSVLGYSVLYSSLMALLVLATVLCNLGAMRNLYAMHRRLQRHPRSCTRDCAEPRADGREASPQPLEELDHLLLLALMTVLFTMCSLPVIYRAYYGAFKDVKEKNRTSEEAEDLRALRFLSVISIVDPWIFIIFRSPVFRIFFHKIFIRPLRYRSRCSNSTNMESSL
Assay: DP1 radioligand binding assay ([3H]BWA868C, platelet membranes)
Details: [3H]BWA868C binding, human platelet membranes; read-out: hDP1
Procedure: The ability of a compound to bind to the human DPI receptor was evaluated via a radioligand membrane binding assay using the DP1 selective synthetic ligand [^311]BWA868C. Packed human platelets (Biological Specialty Corporation), were resuspended in 6 volumes of Hepes/HBSS buffer (10 mM Hepes, 1 mM DTT in Hanks Balanced Salt Solution (HBSS)), lysed and centrifuged at 75,000×g to pellet the membranes. Membranes were resuspended in Hepes/HBSS buffer to approximately 12 mg protein/ml. Membranes (20 μg protein/well) are incubated in 96-well plates with 2 nM [^3H]BWA868C and test compound in Assay Buffer (50 mM Hepes, 10 mM MnCl2, 1 mM EDTA, plus or minus 0.2% human serum albumin, pH 7.4) for 60 minutes at room temperature. The reactions are terminated by rapid filtration through Whatman GF/C glass fibre filter plates. The filter plates were pre-soaked in 0.33% polyethylenimine for 30 minutes at room temperature then washed in Wash Buffer (50 mM Hepes, 0.5 M NaCl pH 7.4) prior to harvesting. After harvesting, the filter plates are washed 3 times with 1 ml cold Wash Buffer then dried. Scintillant is then added to the plates and the radioactivity retained on the filters is determined on a Packard TopCount (Perkin Elmer). Specific binding is determined as total radioactive binding minus non-specific binding in the presence of 10 μM BW A868C. IC50s were determined using GraphPad prism analysis of drug titration curves.

Compound | IC50 [µM]
COc1ccc(CC(=O)O)cc1-c1ccc(C(F)(F)F)cc1CN(C(C)=O)C1CCCC1 [Compound 1-31, {2′-[(Acetyl-cyclopentyl-amino)-methyl]-6-methoxy-4′-trifluoromethyl-biphenyl-3-yl}-acetic acid] | 1 to 30
COc1ccc(CC(=O)O)cc1-c1ccc(C(F)(F)F)cc1CN(C(=O)OCc1ccccc1)C1CCC1 [Compound 1-34, {2′-[(Benzyloxycarbonyl-cyclobutyl-amino)-methyl]-6-methoxy-4′-trifluoromethyl-biphenyl-3-yl}-acetic acid] | 1 to 30
CCN(Cc1cc(C(F)(F)F)ccc1-c1cc(CC(=O)O)ccc1OC)C(=O)NCc1ccccc1 [Compound 1-96, [2′-(3-Benzyl-1-ethyl-ureidomethyl)-6-methoxy-4′-trifluoromethyl-biphenyl-3-yl]-acetic acid] | 1 to 30
COc1ccc(CC(=O)O)cc1-c1ccc(C(F)(F)F)cc1CN(C(C)=O)C1CC1 [Compound 1-12, {2′-[(Acetyl-cyclopropyl-amino)-methyl]-6-methoxy-4′-trifluoromethyl-biphenyl-3-yl}-acetic acid] | 1 to 30
CCN(Cc1cc(C(F)(F)F)ccc1-c1cc(CC(=O)O)ccc1Cl)C(=O)OCc1ccccc1 [Compound 1-110, {2′-[(Benzyloxycarbonyl-ethyl-amino)-methyl]-6-chloro-4′-trifluoromethyl-biphenyl-3-yl}-acetic acid] | 1 to 30
CCN(Cc1ccccc1)C(=O)N(CC)Cc1cc(C(F)(F)F)ccc1-c1cc(CC(=O)O)ccc1OC [Compound 1-94, [2′-(3-Benzyl-1,3-diethyl-ureidomethyl)-6-methoxy-4′-trifluoromethyl-biphenyl-3-yl]-acetic acid] | 1 to 30
CCNC(=O)N(CC)Cc1cc(C(F)(F)F)ccc1-c1cc(CC(=O)O)ccc1OC [Compound 1-181, [2′-(1,3-Diethyl-ureidomethyl)-6-methoxy-4′-trifluoromethyl-biphenyl-3-yl]-acetic acid] | 1 to 30
CCN(Cc1cc(C(F)(F)F)ccc1-c1cc(CC(=O)O)ccc1OC)C(=O)COCc1ccccc1 [Compound 1-92, (2′-{[(2-Benzyloxy-acetyl)-ethyl-amino]-methyl}-6-methoxy-4′-trifluoromethyl-biphenyl-3-yl)-acetic acid] | 1 to 30
CCN(Cc1cc(C(F)(F)F)ccc1-c1cc(CC(=O)O)ccc1OC)C(=O)OCc1ccc(Cl)cc1 [Compound 1-42, (2′-{[(4-Chloro-benzyloxycarbonyl)-ethyl-amino]-methyl}-6-methoxy-4′-trifluoromethyl-biphenyl-3-yl)-acetic acid] | 1 to 30
CCN(Cc1cc(C(F)(F)F)ccc1-c1cc(CC(=O)O)ccc1OC)C(=O)C(F)(F)F [Compound 1-32, (2′-{[Ethyl-(2,2,2-trifluoro-acetyl)-amino]-methyl}-6-methoxy-4′-trifluoromethyl-biphenyl-3-yl)-acetic acid] | 1 to 30
CN(Cc1cc(C(F)(F)F)ccc1-c1cc(CC(=O)O)ccc1F)C(=O)OCc1ccccc1 [Compound 1-29, {2′-[(Benzyloxycarbonyl-methyl-amino)-methyl]-6-fluoro-4′-trifluoromethyl-biphenyl-3-yl}-acetic acid] | 1 to 30
CCN(Cc1cc(F)ccc1-c1cc(CC(=O)O)ccc1OC)C(C)=O [Compound 1-184, {2′-[(Acetyl-ethyl-amino)-methyl]-4′-fluoro-6-methoxy-biphenyl-3-yl}-acetic acid] | 1 to 30
CCN(Cc1cc(NS(C)(=O)=O)ccc1-c1cc(CC(=O)O)ccc1OC)C(=O)OCc1ccccc1 [Compound 1-155, {2′-[(Benzyloxycarbonyl-ethyl-amino)-methyl]-4′-methanesulfonylamino-6-methoxy-biphenyl-3-yl}-acetic acid] | 1 to 30
CCN(Cc1cc(C(F)(F)F)ccc1-c1cc(CC(=O)O)ccc1OC)C(=O)OCc1cccc(Cl)c1 [Compound 1-43, (2′-{[(3-Chloro-benzyloxycarbonyl)-ethyl-amino]-methyl}-6-methoxy-4′-trifluoromethyl-biphenyl-3-yl)-acetic acid] | 1 to 30
CCN(Cc1cc(C(F)(F)F)ccc1-c1cc(CC(=O)O)ccc1OC)C(=O)COc1ccc(Cl)cc1 [Compound 1-93, [2′-({[2-(4-Chloro-phenoxy)-acetyl]-ethyl-amino}-methyl)-6-methoxy-4′-trifluoromethyl-biphenyl-3-yl]-acetic acid] | 1 to 30
CCN(Cc1cc(C(F)(F)F)ccc1-c1cc(CC(=O)O)ccc1OC)C(=O)OCc1ccc(F)cc1 [Compound 1-41, (2′-{[Ethyl-(4-fluoro-benzyloxycarbonyl)-amino]-methyl}-6-methoxy-4′-trifluoromethyl-biphenyl-3-yl)-acetic acid] | 1 to 30
CCN(Cc1cc(F)ccc1-c1cc(CC(=O)O)ccc1OC)C(=O)OCc1ccccc1 [Compound 1-183, {2′-[(Benzyloxycarbonyl-ethyl-amino)-methyl]-4′-fluoro-6-methoxy-biphenyl-3-yl}-acetic acid] | 1 to 30
CCN(Cc1cc(C(F)(F)F)ccc1-c1cc(CC(=O)O)ccc1OC)C(=O)N[C@H](C)c1ccc(Cl)cc1 [Compound 1-179, (2′-{3-[(R)-1-(4-Chloro-phenyl)-ethyl]-1-ethyl-ureidomethyl}-6-methoxy-4′-trifluoromethyl-biphenyl-3-yl)-acetic acid] | 1 to 30
CCN(Cc1cc(C(F)(F)F)ccc1-c1cc(CC(=O)O)ccc1OC)C(=O)OC(C)c1ccc(Cl)cc1 (centres unmarked) [Compound 1-44, [2′-({[1-(4-Chloro-phenyl)-ethoxycarbonyl]-ethyl-amino}-methyl)-6-methoxy-4′-trifluoromethyl-biphenyl-3-yl]-acetic acid] | 1 to 30
CCN(Cc1cc(C(F)(F)F)ccc1-c1cc(CC(=O)O)ccc1OC)C(=O)OCc1ccccc1 [Compound 1-28, {2′-[(Benzyloxycarbonyl-ethyl-amino)-methyl]-6-methoxy-4′-trifluoromethyl-biphenyl-3-yl}-acetic acid] | 1 to 30
CCN(Cc1cc(C(F)(F)F)ccc1-c1cc(CC(=O)O)ccc1OC)C(=O)NCc1cccc(Cl)c1 [Compound 1-177, {2′-[3-(3-Chloro-benzyl)-1-ethyl-ureidomethyl]-6-methoxy-4′-trifluoromethyl-biphenyl-3-yl}-acetic acid] | 1 to 30
CCN(Cc1cc(C(F)(F)F)ccc1-c1cc(CC(=O)O)ccc1OC)C(=O)COC [Compound 1-46, (2′-{[Ethyl-(2-methoxy-acetyl)-amino]-methyl}-6-methoxy-4′-trifluoromethyl-biphenyl-3-yl)-acetic acid] | 1 to 30
CCN(Cc1cc(C(F)(F)F)ccc1-c1cc(CC(=O)O)ccc1F)C(C)=O [Compound 1-10, {2′-[(Acetyl-ethyl-amino)-methyl]-6-fluoro-4′-trifluoromethyl-biphenyl-3-yl}-acetic acid] | 1 to 30
CCN(Cc1cc(C(F)(F)F)ccc1-c1cc(CC(=O)O)ccc1OC)C(C)=O [Compound 1-2, {2′-[(Acetyl-ethyl-amino)-methyl]-6-methoxy-4′-trifluoromethyl-biphenyl-3-yl}-acetic acid] | 1 to 30
CCN(Cc1cc(C(F)(F)F)ccc1-c1cc(CC(=O)O)ccc1OC)C(=O)C(C)(C)Oc1ccc(Cl)cc1 [Compound 1-118, [2′-({[2-(4-Chloro-phenoxy)-2-methyl-propionyl]-ethyl-amino}-methyl)-6-methoxy-4′-trifluoromethyl-biphenyl-3-yl]-acetic acid] | 1 to 30
CCN(Cc1cc(C(F)(F)F)ccc1-c1cc(CC(=O)O)ccc1OC)C(=O)NCc1ccc(Cl)c(Cl)c1 [Compound 1-152, {2′-[3-(3,4-Dichloro-benzyl)-1-ethyl-ureidomethyl]-6-methoxy-4′-trifluoromethyl-biphenyl-3-yl}-acetic acid] | 1 to 30
